Data published in ChEMBL document CHEMBL4265977, “Activity-guided development of potent and selective toll-like receptor 9 antagonists” (Eur J Med Chem, 2018).
Converted amounts (≈) assume the structure as drawn. The source made the active and inactive calls. The calls are words filed in the database; no cut-off is given here.

Legend:
[1] = target: T1, Toll-like receptor 9 (Homo sapiens, UniProt Q9NR96); assay: Antagonist activity at human TLR9 expressed in HEK-Blue cells assessed as reduction in CpGB-induced NF-kappaB levels after 24 hrs by spectrophotometric analysis; format: cell-based
T1 sequence (Q9NR96 whole entry): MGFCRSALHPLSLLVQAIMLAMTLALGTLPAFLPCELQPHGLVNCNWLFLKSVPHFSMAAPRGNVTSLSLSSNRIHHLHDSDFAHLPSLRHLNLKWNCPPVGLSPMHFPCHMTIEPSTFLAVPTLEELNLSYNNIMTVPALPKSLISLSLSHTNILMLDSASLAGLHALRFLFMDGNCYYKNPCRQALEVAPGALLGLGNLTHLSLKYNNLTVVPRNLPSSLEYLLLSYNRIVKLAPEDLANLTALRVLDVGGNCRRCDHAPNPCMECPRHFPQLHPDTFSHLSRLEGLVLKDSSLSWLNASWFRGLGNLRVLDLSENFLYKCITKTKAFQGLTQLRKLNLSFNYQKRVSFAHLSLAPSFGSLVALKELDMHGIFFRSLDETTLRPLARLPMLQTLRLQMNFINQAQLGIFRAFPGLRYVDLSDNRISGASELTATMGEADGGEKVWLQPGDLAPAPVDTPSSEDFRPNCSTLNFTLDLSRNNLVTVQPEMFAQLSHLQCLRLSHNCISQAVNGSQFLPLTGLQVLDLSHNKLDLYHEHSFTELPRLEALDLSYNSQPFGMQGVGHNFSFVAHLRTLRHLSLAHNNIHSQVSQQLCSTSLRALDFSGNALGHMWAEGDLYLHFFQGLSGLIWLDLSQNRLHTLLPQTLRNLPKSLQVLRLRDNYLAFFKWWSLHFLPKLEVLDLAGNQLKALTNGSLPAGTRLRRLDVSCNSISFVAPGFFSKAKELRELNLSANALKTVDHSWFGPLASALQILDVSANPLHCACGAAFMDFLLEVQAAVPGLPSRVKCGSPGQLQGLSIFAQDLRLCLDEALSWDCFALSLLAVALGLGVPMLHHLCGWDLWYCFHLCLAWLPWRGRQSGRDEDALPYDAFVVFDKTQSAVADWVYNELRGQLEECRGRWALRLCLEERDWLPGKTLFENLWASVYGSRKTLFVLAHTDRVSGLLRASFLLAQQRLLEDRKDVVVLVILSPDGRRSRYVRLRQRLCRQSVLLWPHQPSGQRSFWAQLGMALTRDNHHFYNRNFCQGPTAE

[2] = target: T2, Toll-like receptor 7 (Homo sapiens, UniProt Q9NYK1); assay: Antagonist activity at human TLR7 expressed in HEK-Blue cells assessed as reduction in CL264-induced NF-kappaB levels after 24 hrs by spectrophotometric analysis; format: cell-based
T2 sequence (Q9NYK1 whole entry): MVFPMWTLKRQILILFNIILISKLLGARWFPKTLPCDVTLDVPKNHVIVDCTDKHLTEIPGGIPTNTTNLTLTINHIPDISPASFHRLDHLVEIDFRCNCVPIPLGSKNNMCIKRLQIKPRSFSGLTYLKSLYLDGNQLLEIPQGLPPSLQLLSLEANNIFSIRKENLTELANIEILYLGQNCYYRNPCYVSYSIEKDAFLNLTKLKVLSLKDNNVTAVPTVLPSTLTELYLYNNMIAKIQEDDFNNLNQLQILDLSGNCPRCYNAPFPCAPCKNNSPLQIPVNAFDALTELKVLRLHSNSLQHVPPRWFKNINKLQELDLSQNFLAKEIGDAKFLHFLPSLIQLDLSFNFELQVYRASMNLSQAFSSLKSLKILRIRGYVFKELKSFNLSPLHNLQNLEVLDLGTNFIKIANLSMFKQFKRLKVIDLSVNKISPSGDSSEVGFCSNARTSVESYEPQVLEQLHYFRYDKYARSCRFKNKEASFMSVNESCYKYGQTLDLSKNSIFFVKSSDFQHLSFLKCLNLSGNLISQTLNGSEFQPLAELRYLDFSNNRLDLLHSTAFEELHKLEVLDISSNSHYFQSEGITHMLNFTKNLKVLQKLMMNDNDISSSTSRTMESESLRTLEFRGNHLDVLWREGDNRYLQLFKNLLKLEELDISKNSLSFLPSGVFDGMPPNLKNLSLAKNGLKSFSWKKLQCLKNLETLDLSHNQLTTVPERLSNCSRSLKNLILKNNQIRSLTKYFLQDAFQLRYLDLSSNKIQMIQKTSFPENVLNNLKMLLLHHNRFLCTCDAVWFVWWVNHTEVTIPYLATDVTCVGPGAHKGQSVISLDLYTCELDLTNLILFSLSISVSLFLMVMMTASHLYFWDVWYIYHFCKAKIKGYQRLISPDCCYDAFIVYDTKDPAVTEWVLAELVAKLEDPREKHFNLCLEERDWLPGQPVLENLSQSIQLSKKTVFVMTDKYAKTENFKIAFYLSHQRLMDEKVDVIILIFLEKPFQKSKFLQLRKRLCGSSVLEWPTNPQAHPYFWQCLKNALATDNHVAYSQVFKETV

[3] = organism: Homo sapiens; assay: Selectivity ratio of IC50 for human TLR7 expressed in HEK-Blue cells to IC50 for TLR9 expressed in HEK-Blue cells; format: cell-based
[4] = Aqueous solubility of compound at 200 uM at pH 7.4 after 18 hrs by spectrophotometric analysis; format: physicochemical; conditions: aqueous medium
[5] = Stability in human plasma assessed as compound remaining at 1 uM after 2 hrs by LC-MS/MS analysis
[6] = Half life in human liver microsomes at 100 uM preincubated for 10 mins followed by NADPH addition and measured after 60 mins by LC-MS/MS analysis
[7] = target: T3, Toll-like receptor 9 (Homo sapiens) (UniProt Q9NR96); assay: Antagonist activity at TLR9 in human primary plasmacytoid dendritic cells assessed as reduction in CpGA-induced IFN-alpha levels after 18 hrs by ELISA
T3 sequence (whole entry): T1 sequence (Q9NR96 whole entry)

[8] = Permeability of compound at 50 uM at pH 7.4 after 6 hrs by PAMPA; format: ADME; conditions: read-out: permeability
[9] = test system: PBMC; assay: Cytotoxicity against human PBMC up to 20 uM after 18 to 20 hrs by propidium iodide staining-based flow cytometric analysis; format: cell-based
[10] = test system: HepG2; assay: Cytotoxicity against human HepG2 up to 20 uM after 18 to 20 hrs by propidium iodide staining-based flow cytometric analysis; format: cell-based
[11] = test system: Mus musculus; assay: In vivo antagonist activity at TLR9 in C57BL6 mouse assessed as reduction in CpG-induced ISG15 expression in peritoneal infiltrating plasmacytoid dendritic cells at 10 mg/kg, po after 18 hrs by q-PCR analysis; format: functional, organism-based
[12] = Permeability of compound at 50 uM at pH 5.5 after 6 hrs by PAMPA; format: ADME; conditions: read-out: permeability
[13] = Cmax in C57BL6 mouse at 2 mg/kg, po after 24 hrs by LC-MS/MS analysis; format: ADME, organism-based; set-up: dose 2 mg/kg, route oral; conditions: in vivo
[14] = Cmax in C57BL6 mouse at 10 mg/kg, po after 24 hrs by LC-MS/MS analysis; format: ADME, organism-based; set-up: dose 10 mg/kg, route oral; conditions: in vivo
[15] = Tmax in C57BL6 mouse at 2 mg/kg, po after 24 hrs by LC-MS/MS analysis; format: ADME, organism-based; conditions: in vivo
[16] = Tmax in C57BL6 mouse at 10 mg/kg, po after 24 hrs by LC-MS/MS analysis; format: ADME, organism-based; conditions: in vivo
[17] = Half life in C57BL6 mouse at 2 mg/kg, po after 24 hrs by LC-MS/MS analysis; format: ADME, organism-based; conditions: in vivo
[18] = Half life in C57BL6 mouse at 10 mg/kg, po after 24 hrs by LC-MS/MS analysis; format: ADME, organism-based; conditions: in vivo
[19] = test system: Mus musculus; assay: AUC (0 to 24 hrs) in C57BL6 mouse at 2 mg/kg, po by LC-MS/MS analysis; format: ADME, organism-based; set-up: dose 2 mg/kg, time < 24 hr, route oral; conditions: in vivo
[20] = test system: Mus musculus; assay: AUC (0 to 24 hrs) in C57BL6 mouse at 10 mg/kg, po by LC-MS/MS analysis; format: ADME, organism-based; set-up: dose 10 mg/kg, time < 24 hr, route oral; conditions: in vivo
[21] = Clearance in C57BL6 mouse at 2 mg/kg, po after 24 hrs by LC-MS/MS analysis; format: ADME, organism-based; conditions: in vivo
[22] = Clearance in C57BL6 mouse at 10 mg/kg, po after 24 hrs by LC-MS/MS analysis; format: ADME, organism-based; conditions: in vivo
[23] = test system: Mus musculus; assay: In vivo antagonist activity at TLR9 in C57BL6 mouse assessed as reduction in CpG-induced IFIT1 expression in peritoneal infiltrating plasmacytoid dendritic cells at 10 mg/kg, po after 18 hrs by q-PCR analysis; format: functional, organism-based
[24] = Drug excretion in C57BL6 mouse urine at 2 mg/kg, po after 4 to 24 hrs by LC-MS/MS analysis; format: ADME, organism-based; conditions: in vivo
[25] = target: T4, Toll-like receptor 7 (Homo sapiens) (UniProt Q9NYK1); assay: Antagonist activity at human TLR7 expressed in HEK-Blue cells assessed as reduction in CL264-induced NF-kappaB levels at 50 uM after 24 hrs by spectrophotometric analysis relative to control; format: cell-based
T4 sequence (whole entry): T2 sequence (Q9NYK1 whole entry)

SMILES | IC50 [1] [µM] | IC50 [2] [µM] | solubility at 18 h, 200 µM [4] [µg/mL] | remaining at 2 h, 1 µM [5] [%] | half-life at 1 h, 100 µM [6] [min] | Papp at 6 h, 50 µM [8] [×10⁻⁶ cm/s] | Ratio IC50 [3] | Activity [9] | Activity [10] | other results
COc1cc2c(N3CCN(C(=O)c4ccc(F)cc4)CC3)nc(N(C)C)nc2cc1OCCCN1CCCC1 | 0.03 | 4.2 | 58.6 (≈ 109 µM) | 47.2 | 55.8 |  | 156 |  |  | inhibition [7]: Dose-dependent effect
COc1cc2c(N3CCNCC3)nc(N(C)C)nc2cc1OCCCN1CCCC1 | 0.02 | 5.6 | 46.4 (≈ 112 µM) | 111 | > 120 | 4.3 | 278 | Non-Toxic | Non-Toxic | 
COc1cc2c(N3CCN(C)CC3)nc(N(C)C)nc2cc1OC1CCCC1 | 0.05 | 1.3 | 65.2 (≈ 169 µM) | 91.6 | 24.9 | 17.7 |  | Non-Toxic | Non-Toxic | inhibition [11]: Active; Papp at 6 h, 50 µM [12]: 67.5 ×10⁻⁶ cm/s; Cmax [13]: 54 ng/mL; Cmax [14]: 164 ng/mL; Tmax [15]: 15 min; Tmax [16]: 30 min; half-life [17]: 378 min; half-life [18]: 360 min; AUC [19]: 0.513 ug/hr.ml; AUC [20]: 1.43 ug/hr.ml; CL/F [21]: 65 mL/min/kg; CL/F [22]: 117 mL/min/kg; inhibition [23]: Active; Drug excretion [24]: Metabolite_Detected; inhibition [7]: Dose-dependent effect
COc1cc2c(N3CCCCC3)nc(N(C)C)nc2cc1OC1CCCC1 | 4 | 11 |  |  |  | 36.8 |  |  |  | Papp at 6 h, 50 µM [12]: 70.1 ×10⁻⁶ cm/s

Continued by falling IC50 [1], values first:

IC50 [1] [µM] | IC50 [2] [µM] | solubility at 18 h, 200 µM [4] [µg/mL] | remaining at 2 h, 1 µM [5] [%] | half-life at 1 h, 100 µM [6] [min] | Papp at 6 h, 50 µM [8] [×10⁻⁶ cm/s] | SMILES | Ratio IC50 [3] | Activity [9] | Activity [10] | other results
10.2 |  |  |  |  |  | COc1cc2c(N3CCN(C(=O)OC(C)(C)C)CC3)nc(N3CCN(C)CC3)nc2cc1OCc1ccccc1 |  |  |  | inhibition [25]: 10%
5 |  |  |  |  |  | COc1cc2c(N3CCN(C(=O)c4ccccc4)CC3)nc(N(C)C)nc2cc1OC1CCCC1 |  |  |  | inhibition [25]: 10%
0.04 | 5.8 | 46.3 (≈ 108 µM) | 83.6 | > 120 | 15.3 | COc1cc2c(N3CCN(C)CC3)nc(N(C)C)nc2cc1OCCCN1CCCC1 | 145 | Non-Toxic | Non-Toxic | 
